Data taken from doi:10.1101/2025.08.19.670962, “Structural basis for binding of RILPL1 to TMEM55B reveals a lysosomal platform for adaptor assembly through a conserved TBM motif” (bioRxiv, 2025).
“Also recorded” adds a separate entry of the source.

These sequences were tested on WT TMEM55B region 80-166 (assay: In vitro pulldown of untagged TMEM55B with His-tagged bait peptides). Settings: 10 μM bait, 10 μM prey, Ni2+-agarose, 20 mM Tris pH 8.0, 300 mM NaCl, 20 mM imidazole, 15 minutes; SDS-PAGE, Coomassie; qualitative.
Type: binding
Excerpt: (§1) Figure 5: In vitro pulldowns of TMEM55B with TBM peptides. (A) Domain organization of TMEM55B interactors depicting the sequence context of the TBM. Regions that are α-helical have been drawn as cylinders; α/βfolds are shown as rectangles; and unstructured segments are zigzag lines. (B) Cartoon depiction of the in vitro pulldown strategy using His-tagged peptides. […] As a control, the R151E variant of TMEM55B was used, which abolishes the interactions with RILPL1 (bottom panel). […] Protein/peptide concentrations were 10μM (see Methods) and visualization was enabled by Coomassie Brilliant Blue G250.
(§2) Given that the TBMs reside in flexible regions of the adaptor proteins (Figure 5A), peptides should be able to mimic their interactions with TMEM55B. Peptides corresponding to the potential TBMs were synthesized with an N-terminal hexahistidine tag to enable in vitro pulldowns of TMEM55B (80-166; Figure 5B). Slightly extended peptides beyond the minimal TBMs were generated to preclude any structural or conformational restrictions on the interaction with TMEM55B. The peptide TBM from RILPL1 was used as a positive control, and the mutant R151E™ of TMEM55B provided a negative control. Peptides run on conventional SDS-PAGE gels are generally not visible in this assay.
In vitro pulldowns were conducted using hexahistidine tagged peptides of interacting proteins as bait, as described in dx.doi.org/10.17504/protocols.io.dm6gpqk91lzp/v2. If not stated otherwise 10μM of bait peptide or the hexahistidine tagged PH domain of OCRL was mixed with 10μM of prey TMEM55B80-166 or TMEM55B80-160 in 1.5 mL centrifuge tubes with 25 μl Ni^2+-agarose resin in a final volume of 1ml of binding buffer (20 mM Tris pH 8.0, 300 mM NaCl, 20mM Imidazole, 10 mM β-mercapotoethanol). The reaction mixture was subjected to gentle shaking for 15 minutes. The resin was collected by gentle centrifugation (1,000 rpm) and washed 3 times with 1 ml of the binding buffer. Following release of proteins from the resin with 50μl elution buffer (20 mM Tris-Cl pH 8.0, 300 mM NaCl, 200mM imidazole), samples were subjected to SDS-PAGE and stained with Coomassie Brilliant Blue[26].

Sequence | pulldown of untagged WT TMEM55B (80-166) by His-tagged bait
HHHHHHGSDDLEQATEALDS [WDR81, His-tagged WDR81 657-668 TBM peptide used as pulldown bait] | interact with TMEM55B
HHHHHHGSGYTEQGQEALQHL [His-tagged RILPL1 peptide, RILPL1 391-403 TBM peptide with N-terminal hexahistidine tag; direct pulldown, ITC] | clear band
HHHHHHGSTAEEATEATEG [JIP4, His-tagged JIP4 887-897 TBM peptide used as pulldown bait] | interact with TMEM55B
HHHHHHGSVQEAEETLLID [OCRL, His-tagged peptide corresponding to the TBM of OCRL, residues 65-75] | failed to pulldown TMEM55B; also recorded: did not significantly interact
HHHHHHSQSTEEATEATEVPD [JIP3, His-tagged JIP3 889-903 TBM peptide used as pulldown bait] | interact with TMEM55B

Each sequence was assayed on R151E variant of TMEM55B (assay: In vitro pulldown of TMEM55B R151E variant with His-tagged bait peptides (negative control)). Settings: 10 μM bait, 10 μM prey, Ni2+-agarose, 20 mM Tris pH 8.0, 300 mM NaCl, 20 mM imidazole, SDS-PAGE, Coomassie, qualitative.
Type: binding
Excerpt: as §1
as §2, with “assay. […]” for “assay.”

Sequence | pulldown of R151E variant of TMEM55B by His-tagged bait
HHHHHHGSGYTEQGQEALQHL [His-tagged RILPL1 peptide, RILPL1 391-403 TBM peptide with N-terminal hexahistidine tag; direct pulldown, ITC] | abolished
